The target in this assay is Glycogen synthase kinase-3 alpha (Homo sapiens) (UniProt P49840). The assay can be described thus: concentration-response blocking of human GSK3A – biochemical, luminescence, cell-free homogeneous, retest, dose response (AID 463203). Particulars: GSK-3 alpha enzyme, ADP-Glo luminescence, 60 min. A general note: ADP-Glo turns the ADP formed in a reaction into a luminescent signal.

67 compounds from PubChem BioAssay AID463203 (Broad Institute, 2010) can be followed below.

Activity calls are given as the source filed them.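 The calls were made as follows: active = more than half of replicate measurements showing over 20% loss of kinase signal relative to plate controls; inconclusive = some but at most half of replicates over 20% loss; inactive = no replicate over 20% signal loss.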 Where only a bound is given, the exact number is not on record here.

Sequence of Glycogen synthase kinase-3 alpha (Homo sapiens) (P49840 whole entry, looked up): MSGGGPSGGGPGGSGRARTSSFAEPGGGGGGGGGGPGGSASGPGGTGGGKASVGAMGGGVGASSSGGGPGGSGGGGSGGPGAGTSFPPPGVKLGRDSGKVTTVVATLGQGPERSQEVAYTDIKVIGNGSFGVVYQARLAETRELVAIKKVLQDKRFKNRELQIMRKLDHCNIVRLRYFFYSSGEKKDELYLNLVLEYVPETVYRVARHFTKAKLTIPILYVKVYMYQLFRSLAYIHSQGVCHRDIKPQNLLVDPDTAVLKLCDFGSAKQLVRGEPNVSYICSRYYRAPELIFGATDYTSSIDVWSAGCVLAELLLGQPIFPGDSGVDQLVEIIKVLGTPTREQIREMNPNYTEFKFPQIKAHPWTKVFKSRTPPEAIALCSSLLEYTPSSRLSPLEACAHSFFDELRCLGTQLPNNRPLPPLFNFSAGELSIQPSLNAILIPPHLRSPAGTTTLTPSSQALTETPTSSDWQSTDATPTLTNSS

Usually AC50 stands for the concentration at which the activity in the assay is half-maximal. Consider `Cc1c(C(=O)N2CCOCC2)oc2ccc(S(=O)(=O)N3CCCCCC3)cc12`, for which the AC50 was > 30 µM (inactive).

`Cc1ccnc(NC(=O)CCC(=O)N(CC(=O)NCc2ccc(F)cc2)Cc2ccccc2)c1`: the AC50 was 11.4 µM.

Regarding `CC(OC(=O)Cc1c[nH]c2ccccc12)C(=O)c1ccccc1` (configuration not stated), the AC50 was > 30 µM (inactive).

Consider `Cc1ccc2nc(-c3ccccn3)[nH]c2c1`, for which the AC50 is > 30 µM (inactive).

For `CCCCOC(=O)Nc1nnc(COc2ccccc2)s1`, the AC50 was > 30 µM (inactive).

As to `Cc1ccc(NC(=O)C2CCN(c3ncnc4sc(C)c(C)c34)CC2)cc1S(=O)(=O)N(C)C`, the AC50 is > 30 µM (inactive).

Turning to `CCOC(=O)C(CC)Sc1ccc2nnc(-c3cccnc3)n2n1` (configuration not stated), the AC50 is > 30 µM (inactive).

`CCOC(=O)c1nnn(-c2nonc2N)c1COc1ccc(F)cc1`: the AC50 is 4.9 µM.

For the compound `O=c1[nH]c(CN2CCN(CCO)CC2)nc2ccccc12`, the AC50 was > 30 µM (inactive).

`c1ccc(-c2nc3ccccc3[nH]2)cc1`: the AC50 is > 30 µM (inactive).

With `COc1ccc(S(=O)(=O)NC(C)C(=O)O)cc1` (configuration not stated), the AC50 was > 30 µM (inactive).

Regarding `COc1ccccc1NC(=O)CSc1nnc(-c2ccccc2)o1`, the AC50 is > 30 µM (inactive).

As for `O=C(CN(Cc1ccc(F)cc1)C(=O)CCC(=O)Nc1nccs1)NCc1ccc(F)cc1`, the AC50 was 9.59 µM.

On to `Cc1ccc(NC(=O)CSc2nnc(-c3ccncc3)s2)cc1`, for which the AC50 is > 30 µM (inactive).

For the compound `COC(=O)c1nnn(-c2ccccc2)c1N`, the AC50 is > 30 µM (inactive).

`CC(=O)c1cccc(NC(=O)c2cc(-n3cnnc3)ccc2Cl)c1`: the AC50 was > 30 µM (inactive).

Turning to `Nc1nc(NCc2ccccc2)nc(NCc2ccccc2)c1[N+](=O)[O-]`, the AC50 was > 30 µM (inactive).

`COC(=O)c1cc(OC)nc2ccc(Br)cc12`: the AC50 is > 30 µM (inactive).

With `CSc1ccc(CN2CCN(Cc3ccc([N+](=O)[O-])cc3)CC2)cc1`, the AC50 was > 30 µM (inactive).

Turning to `COc1ccc(C(CNc2ccc(S(=O)(=O)N3CCCC3)cc2[N+](=O)[O-])N2CCCC2)cc1` (configuration not stated), the AC50 was > 30 µM (inactive).

Regarding `CCCNc1nc(Cl)nc(Nc2ccc(Cl)cc2)n1`, the AC50 was > 30 µM (inactive).

For the compound `CCCCCCN=C(C)c1c(O)n(CCCC)c(=O)[nH]c1=O`, the AC50 is > 30 µM (inactive).

On to `COc1ccc(-c2noc(CSc3nc(N)cc(=O)[nH]3)n2)cc1`, for which the AC50 is > 30 µM (inactive).

`NS(=O)(=O)c1ccc(NC(=O)CSc2nnc(-c3ccc(O)cc3)o2)cc1`: the AC50 is 4.93 µM.

As to `Clc1ccc(OCc2nnc(SCc3nnc(-c4ccccc4)o3)o2)c(Cl)c1`, the AC50 was > 30 µM (inactive).

Take `CSc1cccc(NC(=O)CN(C)S(=O)(=O)c2cnc[nH]2)c1`: the AC50 is > 30 µM (inactive).

Turning to `CCN(CC)c1ccc(C2C(C(=O)OC(C)C)C(=O)CC(C)(O)C2C(=O)OC(C)C)cc1` (configuration not stated), the AC50 was > 30 µM (inactive).

`Cc1[nH]nc2c1C(c1ccsc1)C1=C(CC(C)(C)CC1=O)N2` (configuration not stated): the AC50 is 1.06 µM.

For the compound `Oc1ccc(-c2nnc(-c3ccccc3)c(-c3ccccc3)n2)cc1`, the AC50 is > 30 µM (inactive).

Take `CCOC1(OCC)N=C(N)C2(C#N)C(c3cccc(C)c3)C12C#N` (configuration not stated): the AC50 was > 30 µM (inactive).

On to `CCC(=O)/C=C1\Sc2ccc(OC)cc2N1CCO`, for which the AC50 was > 30 µM (inactive).

`Cc1cc(/C=N/O)c(C)n1-c1ccc(Br)cc1`: the AC50 is > 30 µM (inactive).

With `CCNc1c(C(=O)O)ccc2c1C(=O)c1ccccc1C2=O`, the AC50 is > 30 µM (inactive).

For the compound `COc1ccc(-n2c(SCC(N)=O)nnc2-c2ccco2)cc1`, the AC50 was > 30 µM (inactive).

As to `N#Cc1c(Nc2ccccc2)c(/C=N/N=C/c2ccccc2)c[nH]c1=O`, the AC50 was > 30 µM (inactive).

Consider `Cc1cc(=O)[nH]c2ccccc12`, for which the AC50 was > 30 µM (inactive).

For the compound `CCOc1cc(/C=C2\SC(N3CCCCC3)=NC2=O)ccc1O`, the AC50 is > 30 µM (inactive).

Take `Cc1cccc(C)c1OCC(O)CNC(C)C` (configuration not stated): the AC50 is > 30 µM (inactive).

With `COc1ccccc1CC(=O)N1CCOCC1`, the AC50 was > 30 µM (inactive).

For `O=[N+]([O-])c1ccc(NCCCN2CCOCC2)c(Cl)c1`, the AC50 is > 30 µM (inactive).

Turning to `Cc1nnc(N/N=C/c2ccc(-c3ccc(Br)cc3)o2)n1N`, the AC50 is 15.4 µM.

`CC1(C)CC(=O)c2cnc(NCC3CCCO3)nc2C1` (configuration not stated): the AC50 was > 30 µM (inactive).

On to `CCC(=NCCO)c1c(O)n(C2CCCCC2)c(=O)[nH]c1=O`, for which the AC50 was 19.4 µM.

For `CS(=O)(=O)N1CCN(c2ccc(NC(=O)c3ccc(Br)o3)cc2)CC1`, the AC50 was > 30 µM (inactive).

Turning to `CCCCOC(=O)n1ccc(C(=O)Nc2ccccc2OC)n1`, the AC50 was 29.6 µM.

Take `Clc1ccc(C2=Nn3c(nnc3-c3cccnc3)SC2)s1`: the AC50 is > 30 µM (inactive).

Turning to `CC[n+]1c(/C=C/N(C)c2ccccc2)n(-c2ccccc2)c2ccc(-c3nc4ccccc4s3)cc21`, the AC50 was > 30 µM (inactive).

`S=C(Nc1cccnc1)Nc1ccccn1`: the AC50 was > 30 µM (inactive).

In the case of `O=C(Nc1cccc(O)c1)c1ccc([N+](=O)[O-])cc1Cl`, the AC50 was > 30 µM (inactive).

On to `COC(=O)c1c(NC(=O)CN2C(=O)NC3(CCC(C(C)(C)C)CC3)C2=O)sc2c1CCCCC2` (configuration not stated), for which the AC50 was > 30 µM (inactive).

With `NC(=O)c1cccc(S(=O)(=O)N2CC(c3ccccc3)CC2=O)c1` (configuration not stated), the AC50 is > 30 µM (inactive).

As for `Cc1c(O)ccc2c3c(c(=O)oc12)CCC(C)C3` (configuration not stated), the AC50 is > 30 µM (inactive).

Take `Nc1nc(NCCO)nc(N2CCCCCC2)c1[N+](=O)[O-]`: the AC50 is 18.4 µM.

For the compound `CCCCN(CC)C(=O)c1oc2ccc(S(=O)(=O)N3CCCC3)cc2c1C`, the AC50 is > 30 µM (inactive).

With `O=C1N=C(C=c2ccc(=Cc3[nH]c(=O)[nH]c3O)cc2)C(=O)N1`, the AC50 was 15.5 µM.

As to `CC(C)CC(O)C1CCN(C(=O)CCc2nnc(-c3ccc4c(c3)OCO4)o2)CC1` (configuration not stated), the AC50 is > 30 µM (inactive).

Regarding `NCCNc1ccc([N+](=O)[O-])c(NC2CC2)c1`, the AC50 is > 30 µM (inactive).

Consider `N#CCCn1cc(C(=O)N2CCCCC2)c(-c2cccc([N+](=O)[O-])c2)n1`, for which the AC50 is > 30 µM (inactive).

As to `O=C(CSc1ccccc1)Nc1ccc2c(c1)C(=O)NC2=O`, the AC50 was 6.21 µM.

For the compound `CN1/C(=C/C(=S)NC(=O)C2CCC2)C(C)(C)c2ccccc21`, the AC50 is > 30 µM (inactive).

For `Cc1ccc2cc(C#N)c(N3CCCN(C(=S)NCCCN(C)C)CC3)nc2c1`, the AC50 is > 30 µM (inactive).

With `COC(=O)[C@@H](NC(=O)NCc1ccc(F)cc1)C(C)C`, the AC50 was > 30 µM (inactive).

In the case of `CCCOC(=O)c1[nH]c2c(c1C)C(=O)CC(c1cc(OC)c(OC)c(OC)c1)C2` (configuration not stated), the AC50 is > 30 µM (inactive).

Consider `CCOC(=O)c1c(Cc2ccccc2)c[nH]c1C`, for which the AC50 was > 30 µM (inactive).

With `COc1ccc(-c2nc3ncccn3c2Nc2ccccc2)cc1`, the AC50 was > 30 µM (inactive).

Consider `NC(=O)c1cn(-c2ccccc2)nc1-c1cccnc1`, for which the AC50 is > 30 µM (inactive).

Regarding `COc1ccc(N2CCOCC2)c(NC(=O)c2ccc(Br)o2)c1`, the AC50 is 8.71 µM.
